Data: patent US20230092679A1, “MCL-1 INHIBITOR ANTIBODY-DRUG CONJUGATES AND METHODS OF USE” (NOVARTIS AG, priority 2019, published 2023)

Tests used:
Format in all cases: cell-based
KMS-20 = experiment: CellTiter-Glo proliferation assay, anti-CD48 ADCs (Example 18); conditions: KMS-20, 5 days
Procedure: (§1) The CD48 MCL-1 antibody drug conjugate CD48-L7-P1, isotype IgG1-L7-P1 ADC, and MCL-1 free payload P1 were tested against four endogenous cancer cell lines. KMS-21 BM (JCRB No. JCRB11185 cultured in RPMI-1640+10% FBS), KMS-20 (JCRB No. JCRB1196 cultured in RPMI-1640+10% FBS), KMS-27 (JCRB No. JCRB1188 cultured in RPMI-1640+10% FBS), and NCI-H929 (ATCC No. CRL-9068 cultured in RPMI-1640+10% FBS+0.05 mM 2-mercaptoethanol).
(§2) The ability of the CD48 MCL-1 antibody drug conjugate CD48-L7-P1, isotype IgG1-L7-P1 ADC, and MCL-1 free payload P1 to inhibit cell proliferation and survival was assessed using the Promega CellTiter-Glo® proliferation assay.
(§3) Cell lines were cultured in media that is optimal for their growth at 5% CO2, 37° C. in a tissue culture incubator. Prior to seeding for the proliferation assay, the cells were split at least 2 days before the assay to ensure optimal growth density. On the day of seeding, suspension cells were harvested. Cell viability and cell density were determined using a cell counter (Vi-Cell XR Cell Viability Analyzer, Beckman Coulter). […] Cells were seeded at a density of 1,000 cells per well in 45 μL of standard growth media. Plates were incubated at 5% CO2, 37° C. overnight in a tissue culture incubator. The next day, free MCL-1 payload (P1), targeting MCL-1 ADC, and non-targeting isotype ADCs were prepared at 10× in standard growth media. The prepared drug treatments were then added to the cells resulting in final concentrations of 0.0005-500 nM and a final volume of 50 μL per well. Each drug concentration was tested in quadruplets. Plates were incubated at 5% CO2, 37° C. for 5 days in a tissue culture incubator, after which cell viability was assessed through the addition of 25 μL of CellTiter Glo® (Promega, cat #G7573), a reagent which lyses cells and measures total adenosine triphosphate (ATP) content. Plates were incubated at room temperature for 10 minutes to stabilize luminescent signals prior to reading using a luminescence reader (EnVision Multilabel Plate Reader, PerkinElmer). To evaluate the effect of the drug treatments, luminescent counts from wells containing untreated cells (100% viability) were used to normalize treated samples. A variable slope model was applied to fit a nonlinear regression curve to the data in GraphPad PRISM version 7.02 software. IC50 and Amax values were extrapolated from the resultant curves.
(§4) The dose response curves of representative cancer cell lines expressing the CD48 target of interest are shown in FIG. 22 (square=CD48-L7-P1, circle IgG-L7-P1, triangle=free MCL1 payload P1).

KMS-21 BM = experiment: as above; conditions: 5 days
Procedure: as §1, §2, §3, §4

KMS-27 = experiment: as above; conditions: KMS-27, 5 days
Procedure: as §1, §2, §3, §4

NCI-H929 = experiment: as above; conditions: NCI-H929, 5 days
Procedure: as §1, §2, §3, §4

5339hx = experiment: In vitro ADC activity, AML cell lines, CellTiter-Glo (Example 20); conditions: 5 days
eol1 = experiment: as above; conditions: eol1, 5 days
f36p = experiment: as above; conditions: 5 days
ko52 = experiment: as above; conditions: ko52, 5 days
p31fuj = experiment: as above; conditions: 5 days
tf1 = experiment: as above; conditions: tf1, 5 days
thp1 = experiment: as above; conditions: thp1, 5 days

## COc1ccccc1-c1nccc(COc2ccccc2C[C@@H](Oc2ncnc3sc(-c4ccc(F)cc4)c(-c4ccc(OCCN5CCN(C)CC5)c(Cl)c4C)c23)C(=O)O)n1 [P1, (2R)-2-[5-[3-chloro-2-methyl-4-[2-(4-methylpiperazin-1-yl)ethoxy]phenyl]-6-(4-fluorophenyl)thieno[2,3-d]pyrimidin-4-yl]oxy-3-[2-[[2-(2-methoxyphenyl)pyrimidin-4-yl]methoxy]phenyl]propanoic acid]
KMS-20; 120 h
  IC50: 4.95 nM
KMS-20; in %
  Amax: 94.34
KMS-21 BM; 120 h
  IC50: 0.941 nM
KMS-21 BM; in %
  Amax: 85.27
KMS-27; 120 h
  IC50: 6.98 nM
KMS-27; in %
  Amax: 88.98
NCI-H929; Homo sapiens, 120 h
  IC50: 2.04 nM
NCI-H929; in %
  Amax: 109.1
5339hx; 120 h
  GI50: 5 nM
5339hx; in % (unit assumed)
  Amax: −83
eol1; Homo sapiens, 120 h
  GI50: 1 nM
eol1; in % (unit assumed)
  Amax: −91
f36p; 120 h
  GI50: > 10000 nM
f36p; unit assumed
  Amax: 51%
ko52; 120 h
  GI50: 500 nM
ko52; in % (unit assumed)
  Amax: −75
p31fuj; in % (unit assumed)
  Amax: −73
p31fuj; Homo sapiens, P31-FUJ, 120 h
  GI50: 116 nM
tf1; Homo sapiens, TF-1, 120 h
  GI50: 239 nM
tf1; unit assumed
  Amax: 10%
thp1; Homo sapiens, THP-1, 120 h
  GI50: 28 nM
thp1; in % (unit assumed)
  Amax: −72
